Like-named read-outs stand apart in the source and are kept apart here.
Legend:
CAIII = molecular target: T1, CAIII (Homo sapiens, UniProt P07451); assay: Fluorescent thermal shift assay (FTSA), CAIII; assay type: binding; settings: for Intrinsic Gibbs energy change (ΔGint), CAIII: 37 °C, calculated (Equation 5); for Kd: FTSA, pH 7.0, 37 °C, read-out: Observed Dissociation Constant (Kd_obs), CAIII
T1 construct: made in house; host or cells: E. coli
Method: (§1) Human CA isozymes were expressed in E. coli (CAI, II, III, IV, VA, VB, VII, XII, XIII, XIV) or mammalian cells (CAVI and CAIX), chromatographically purified following the published protocols [47], and stored at −80 °C. The protein concentration was determined by UV absorption at 280 nm using Beer–Lambert law.
(§2) The QIAGEN Rotor-Gene Q was used to carry out the experiments, with a blue channel used for excitation (365 nm) and detection (460 nm). FTSA in this case relies on an extrinsic probe, 8-anilino-1-naphthalenesulfonate (ANS), to detect the fluorescence increase during protein denaturation, from which protein melting temperature (Tm) can be determined. […] The observed affinity of ligands for CAs was determined by plotting the Tm as a function of ligand concentration and then fitting a curve as described previously [48]. […] Samples were heated from 25 °C to 99 °C at the speed of 1 °C/min.
(§3) The intrinsic thermodynamic parameters were calculated as described in [40]. The intrinsic reaction of inhibitor binding to CA is shown in Equation (1). […] It is known that CA proteins bind sulfonamides only when water molecules are coordinated to the Zn(II) ion, and sulfonamides only bind to CA proteins when their amino group is deprotonated (confirmed by neutron crystallography [53, 54, 55]):(1) CA Zn^II−H2O+RSO2NH^−⇄ CA Zn^II−NH SO2R+H2O
(§4) When calculating Kd_int values, these protein and ligand fractions from Equation (1) have to be accounted for (Equations (2) and (3)). The intrinsic dissociation constant is calculated by multiplying Kd_obs value by the corresponding fractions of protein and ligand (Equation (4)). (2) fRSO2NH^−=10^pH−pKa_RSO2NH2/1+10^pH−pKa_RSO2NH2 (3) fCAZnH2O=1−10^pH−pKa_CAZnH2O/1+10^pH−pKa_CAZnH2O (4) Kd_int=Kd_obs×fRSO2NH^−×fCAZnH2O (5) ΔGint0=RTlnKd_int
(§5) The intrinsic standard Gibbs energy changes upon binding were calculated using Equation (5). Here, R—universal ideal gas constant (8.3144 J/mol·K), T—absolute temperature (310.15 K).

CAXIII [1] = molecular target: T2, CAXIII (Homo sapiens, UniProt Q8N1Q1); settings: 37 °C; calculated (Equation 5);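 further: recombinant human CAXIII melting temperature tracked by ANS fluorescence in thermal shift assay, Tm fitted against ligand concentration, intrinsic value corrects Kd for deprotonated sulfonamide and Zn-bound water fractions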
Method: as §1, §2
(§6) The intrinsic thermodynamic parameters were calculated as described in [40]. The intrinsic reaction of inhibitor binding to CA is shown in Equation (1).
as §4, §5

CAVII = molecular target: T3, CAVII (Homo sapiens, UniProt P43166); assay: Fluorescent thermal shift assay (FTSA), CAVII; assay type: binding; settings: for Intrinsic Gibbs energy change (ΔGint), CAVII: 37 °C, calculated (Equation 5); for Kd: FTSA, pH 7.0, 37 °C, read-out: Observed Dissociation Constant (Kd_obs), CAVII
T3 construct: made in house; host or cells: E. coli
Method: as §1, §2, §3, §4, §5

CAVI = molecular target: T4, CAVI (Homo sapiens, UniProt P23280); assay: Fluorescent thermal shift assay (FTSA), CAVI; assay type: binding; settings: for Intrinsic Gibbs energy change (ΔGint), CAVI: 37 °C, calculated (Equation 5); for Kd: FTSA, pH 7.0, 37 °C, read-out: Observed Dissociation Constant (Kd_obs), CAVI;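 on all read-outs here: human CAVI expressed in mammalian cells, ANS fluorescence tracked during thermal unfolding, melting temperature fitted against ligand concentration, intrinsic values corrected for deprotonated sulfonamide and Zn-bound water fractions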
T4 construct: made in house
Method: as §1, §2, §3, §4, §5

CAVB = molecular target: T5, CAVB (Homo sapiens, UniProt Q9Y2D0); assay: Fluorescent thermal shift assay (FTSA), CAVB; assay type: binding; settings: for Intrinsic Gibbs energy change (ΔGint), CAVB: 37 °C, calculated (Equation 5); for Kd: FTSA, pH 7.0, 37 °C, read-out: Observed Dissociation Constant (Kd_obs), CAVB
T5 construct: made in house; host or cells: E. coli
Method: as §1, §2, §3, §4, §5

CAII = molecular target: T6, CAII (Homo sapiens, UniProt P00918); assay: biochemical; assay type: binding; settings: for Intrinsic Gibbs energy change (ΔGint), CAII: 37 °C, calculated (Equation 5); for Kd: FTSA, pH 7.0, 37 °C, read-out: Observed Dissociation Constant (Kd_obs), CAII
T6 construct: made in house; host or cells: E. coli

CAVA = molecular target: T7, CAVA (Homo sapiens, UniProt P35218); assay: Fluorescent thermal shift assay (FTSA), CAVA; assay type: binding; settings: for Kd: FTSA, pH 7.0, 37 °C, read-out: Observed Dissociation Constant (Kd_obs), CAVA
T7 construct: made in house; host or cells: E. coli
Method: as §1, §2, §3, §4, §5

CAXIII [2] = molecular target: T2, CAXIII; assay: biochemical; settings: Observed Dissociation Constant (Kd_obs), FTSA, pH 7.0, 37 °C
Method: as §1, §2, §6, §4, §5

CAXIV = molecular target: T8, CAXIV (Homo sapiens, UniProt Q9ULX7); assay: Fluorescent thermal shift assay (FTSA), CAXIV; assay type: binding; settings: for Intrinsic Gibbs energy change (ΔGint), CAXIV: 37 °C, calculated (Equation 5); for Kd: FTSA, pH 7.0, 37 °C, read-out: Observed Dissociation Constant (Kd_obs), CAXIV;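 on all read-outs here: recombinant human CA XIV from E. coli, ANS-based thermal shift: Kd_obs fitted from melting temperature versus ligand concentration, ΔGint from Kd_obs corrected for deprotonated sulfonamide and Zn-water fractions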
T8 construct: made in house; host or cells: E. coli
Method: as §1, §2, §3, §4, §5

CAIV = molecular target: T9, CAIV (Homo sapiens, UniProt P22748); assay: Fluorescent thermal shift assay (FTSA), CAIV; assay type: binding; settings: for Intrinsic Gibbs energy change (ΔGint), CAIV: 37 °C, calculated (Equation 5); for Kd: FTSA, pH 7.0, 37 °C, read-out: Observed Dissociation Constant (Kd_obs), CAIV;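 on all read-outs here: recombinant human enzyme, thermal denaturation followed by ANS fluorescence, melting temperature versus ligand concentration fitted for Kd_obs, intrinsic value corrected for deprotonated sulfonamide and Zn-bound water fractions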
T9 construct: made in house; host or cells: E. coli
Method: as §1, §2, §3, §4, §5

CAI = molecular target: T10, CAI (Homo sapiens, UniProt P00915); assay: biochemical; assay type: binding; settings: for Intrinsic Gibbs energy change (ΔGint), CAI: 37 °C, calculated (Equation 5); for Kd: FTSA, pH 7.0, 37 °C, read-out: Observed Dissociation Constant (Kd_obs), CAI
T10 construct: made in house; host or cells: E. coli
Method: as §1, §2, §6, §4, §5

CAIX = molecular target: T11, CAIX (Homo sapiens, UniProt Q16790); assay: biochemical; assay type: binding; settings: for Intrinsic Gibbs energy change (ΔGint), CAIX: 37 °C, calculated (Equation 5); for Kd: FTSA, pH 7.0, 37 °C, read-out: Observed Dissociation Constant (Kd_obs), CAIX
T11 construct: made in house

CAXII = molecular target: T12, CAXII (Homo sapiens, UniProt O43570); assay: biochemical; assay type: binding; settings: for Intrinsic Gibbs energy change (ΔGint), CAXII: 37 °C, calculated (Equation 5); for Kd: FTSA, pH 7.0, 37 °C, read-out: Observed Dissociation Constant (Kd_obs), CAXII
T12 construct: made in house; host or cells: E. coli

[3] = Determination of compound sulfonamide group pKa (UV-Vis spectra at different pH); assay type: physicochemical
Method: To calculate the intrinsic thermodynamic parameters of compound binding to CA isozymes, the pKa values of the sulfonamide group and the water molecule bound to the Zn(II) ion at the active site of CA proteins had to be determined. The pKa values for CA isozyme-bound water molecules were taken from, CAI—8.1; CAII—6.9; CAIII—6.5; CAIV—6.6; CAVA—6.7; CAVB—7.0; CAVI—6.0; CAVII—6.8; CAIX—6.6; CAXII—6.8; CAXIII—8.0; CAXIV—6.1. […] The pKa values were calculated as described previously in [28, 52] by normalizing the absorbance, plotting it as a function of pH, then fitting to the Henderson–Hasselbalch equation using the least square method (Figure S105).
Since the pKa values were only able to be measured for compound group 26–36, due to universal buffer pH limitations, intrinsic thermodynamic parameters were not calculated for compounds 2(a,b)–25(a,b), only for compounds 26–36 using experimentally obtained pKa values when possible and using the average pKa value mentioned above for compounds not measured.

[4] = universal buffer, spectrophotometric, 37 °C, read-out: Sulfonamide pKa
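Wherever Observed Dissociation Constant (Kd obs), CAXII is given: recombinant CAXII made in E. coli, ANS-fluorescence thermal shift with affinity fitted from Tm versus ligand concentration, intrinsic energy from Kd_obs corrected for deprotonated sulfonamide and Zn-water fractions.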

T3 sequence (P43166 whole entry): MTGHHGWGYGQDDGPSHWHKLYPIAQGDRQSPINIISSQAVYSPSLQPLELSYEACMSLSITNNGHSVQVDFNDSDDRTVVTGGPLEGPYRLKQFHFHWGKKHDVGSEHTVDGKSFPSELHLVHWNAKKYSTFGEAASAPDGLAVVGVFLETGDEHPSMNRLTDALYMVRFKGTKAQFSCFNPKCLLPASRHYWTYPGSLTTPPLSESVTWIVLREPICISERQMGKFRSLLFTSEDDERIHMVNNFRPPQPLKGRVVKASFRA
T12 sequence (O43570 25-354): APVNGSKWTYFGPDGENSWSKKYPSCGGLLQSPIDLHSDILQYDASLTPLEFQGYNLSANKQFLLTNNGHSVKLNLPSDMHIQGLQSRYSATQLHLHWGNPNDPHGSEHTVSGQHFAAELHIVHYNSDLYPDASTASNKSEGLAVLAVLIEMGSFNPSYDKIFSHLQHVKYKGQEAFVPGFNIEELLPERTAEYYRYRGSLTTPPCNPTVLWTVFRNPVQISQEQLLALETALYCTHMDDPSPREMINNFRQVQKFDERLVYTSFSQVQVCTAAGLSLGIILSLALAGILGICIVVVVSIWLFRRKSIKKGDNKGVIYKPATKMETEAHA
T4 sequence (P23280 21-290 limits assumed): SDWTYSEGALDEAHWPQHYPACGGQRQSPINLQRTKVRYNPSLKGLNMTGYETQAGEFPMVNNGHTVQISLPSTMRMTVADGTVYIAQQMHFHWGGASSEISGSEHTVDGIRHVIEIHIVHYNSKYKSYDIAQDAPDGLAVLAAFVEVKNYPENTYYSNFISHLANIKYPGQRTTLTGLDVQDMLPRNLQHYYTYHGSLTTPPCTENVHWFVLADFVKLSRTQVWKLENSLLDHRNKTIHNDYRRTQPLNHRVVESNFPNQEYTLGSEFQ
T1 sequence (P07451 whole entry): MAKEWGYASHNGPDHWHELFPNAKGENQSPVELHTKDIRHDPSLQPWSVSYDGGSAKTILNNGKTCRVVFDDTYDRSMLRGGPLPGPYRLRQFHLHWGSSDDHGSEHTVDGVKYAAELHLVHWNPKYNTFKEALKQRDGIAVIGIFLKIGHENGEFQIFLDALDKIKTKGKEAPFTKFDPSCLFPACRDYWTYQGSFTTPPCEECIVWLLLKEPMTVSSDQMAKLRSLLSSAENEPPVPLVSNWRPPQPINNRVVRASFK
T7 sequence (P35218 39-305): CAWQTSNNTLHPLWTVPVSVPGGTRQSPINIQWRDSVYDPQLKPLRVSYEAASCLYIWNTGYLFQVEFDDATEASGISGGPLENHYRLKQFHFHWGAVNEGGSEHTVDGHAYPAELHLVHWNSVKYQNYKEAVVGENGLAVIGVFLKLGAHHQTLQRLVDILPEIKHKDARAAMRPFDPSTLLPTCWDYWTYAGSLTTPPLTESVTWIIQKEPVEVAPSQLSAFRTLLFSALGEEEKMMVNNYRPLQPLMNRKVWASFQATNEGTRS
T8 sequence (Q9ULX7 16-337): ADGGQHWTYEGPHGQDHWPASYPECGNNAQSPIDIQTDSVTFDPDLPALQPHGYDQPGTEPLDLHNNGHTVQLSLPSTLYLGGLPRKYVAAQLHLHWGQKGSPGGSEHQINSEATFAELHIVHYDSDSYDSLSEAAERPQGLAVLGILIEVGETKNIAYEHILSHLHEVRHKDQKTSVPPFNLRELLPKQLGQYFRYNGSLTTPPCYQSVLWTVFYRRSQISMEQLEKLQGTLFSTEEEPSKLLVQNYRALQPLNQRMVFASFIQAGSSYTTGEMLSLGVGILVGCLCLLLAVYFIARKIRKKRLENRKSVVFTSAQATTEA
T10 sequence (P00915 whole entry): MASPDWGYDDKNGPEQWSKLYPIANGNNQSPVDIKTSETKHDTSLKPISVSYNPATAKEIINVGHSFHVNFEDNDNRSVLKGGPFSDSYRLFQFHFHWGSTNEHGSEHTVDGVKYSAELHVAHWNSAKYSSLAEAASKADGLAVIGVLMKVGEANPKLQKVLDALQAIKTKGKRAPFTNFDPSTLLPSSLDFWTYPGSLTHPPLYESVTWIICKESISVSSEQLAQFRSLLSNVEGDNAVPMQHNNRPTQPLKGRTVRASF
T2 sequence (Q8N1Q1 whole entry): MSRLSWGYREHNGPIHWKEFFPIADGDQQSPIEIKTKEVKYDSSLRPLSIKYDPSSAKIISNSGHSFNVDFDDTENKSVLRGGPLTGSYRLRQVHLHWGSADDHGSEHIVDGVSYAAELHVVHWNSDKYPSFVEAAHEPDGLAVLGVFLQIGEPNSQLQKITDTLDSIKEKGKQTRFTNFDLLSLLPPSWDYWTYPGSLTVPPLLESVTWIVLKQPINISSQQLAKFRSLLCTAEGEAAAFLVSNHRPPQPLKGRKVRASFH
T5 sequence (Q9Y2D0 34-317): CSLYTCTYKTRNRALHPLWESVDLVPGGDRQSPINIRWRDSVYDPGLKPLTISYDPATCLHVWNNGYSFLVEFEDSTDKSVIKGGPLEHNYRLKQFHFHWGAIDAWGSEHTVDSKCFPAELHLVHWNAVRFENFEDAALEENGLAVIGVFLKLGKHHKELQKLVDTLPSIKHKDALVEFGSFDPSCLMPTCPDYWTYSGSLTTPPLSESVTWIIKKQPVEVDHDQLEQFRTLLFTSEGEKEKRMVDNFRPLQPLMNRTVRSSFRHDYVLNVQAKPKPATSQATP
T9 sequence (P22748 19-312): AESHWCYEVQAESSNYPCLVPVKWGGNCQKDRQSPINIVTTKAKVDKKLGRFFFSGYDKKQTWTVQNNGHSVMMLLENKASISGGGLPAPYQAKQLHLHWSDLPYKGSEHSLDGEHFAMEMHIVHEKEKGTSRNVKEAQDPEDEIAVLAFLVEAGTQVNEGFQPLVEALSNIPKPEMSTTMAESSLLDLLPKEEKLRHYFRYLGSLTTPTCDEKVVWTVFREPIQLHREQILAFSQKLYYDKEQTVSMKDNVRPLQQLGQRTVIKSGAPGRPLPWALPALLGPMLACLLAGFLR

SMILES | Kd (CAIII) | Intrinsic Gibbs energy change (ΔGint), CAXIII (CAXIII [1]) | Intrinsic Gibbs energy change (ΔGint), CAVII (CAVII) | Kd (CAVII) | Intrinsic Gibbs energy change (ΔGint), CAVI (CAVI) | Kd (CAVI) | Intrinsic Gibbs energy change (ΔGint), CAVB (CAVB) | Kd (CAVB) | Intrinsic Gibbs energy change (ΔGint), CAII (CAII) | Kd (CAII) | Kd (CAVA) | Kd (CAXIII [2]) | Intrinsic Gibbs energy change (ΔGint), CAXIV (CAXIV) | Intrinsic Gibbs energy change (ΔGint), CAIV (CAIV) | Kd (CAIV) | Kd (CAI) | Kd (CAIX) | Kd (CAXII) | melting point | Kd (CAXIV) | also measured
NS(=O)(=O)c1ccc(N(CCC(=O)O)c2nc(-c3ccc(Cl)cc3)c(Cl)s2)cc1 [Compound 36, 3-((5-Chloro-4-(4-chlorophenyl)thiazol-2-yl)(4-sulfamoylphenyl)amino)propanoic acid] | 17000 nM | -15.1 kcal/mol | -15.7 kcal/mol | 33 nM | -13.4 kcal/mol | 6300 nM | -14 kcal/mol | 400 nM | -15.5 kcal/mol | 23 to 40 nM | ≥ 200000 nM | 23 to 40 nM | -15.6 kcal/mol | -13.1 kcal/mol | 3300 nM | 20 nM | 23 nM | 120 nM | – | – | Intrinsic Gibbs energy change (ΔGint), CAIII (CAIII): -12.2 kcal/mol; Intrinsic Gibbs energy change (ΔGint), CAVA (CAVA; 37 °C, calculated (Equation 5)): ≤ -10.4 kcal/mol; Intrinsic Gibbs energy change (ΔGint), CAI (CAI): -15.5 kcal/mol; Intrinsic Gibbs energy change (ΔGint), CAIX (CAIX): -16.1 kcal/mol; Intrinsic Gibbs energy change (ΔGint), CAXII (CAXII): -14.9 kcal/mol; pKa [3, 4]: 10.2
Cc1csc(N(CCC(=O)NN)c2ccc(S(N)(=O)=O)cc2)n1 [Compound 29, 4-((3-Hydrazineyl-3-oxopropyl)(4-methylthiazol-2-yl)amino)benzenesulfonamide] | ≥ 200000 nM | -12.9 kcal/mol | -14 kcal/mol | 670 nM | -12.8 kcal/mol | 20000 nM | -15.2 kcal/mol | 77 nM | -14.3 kcal/mol | 380 nM | ≥ 200000 nM | 1700 nM | -15.8 kcal/mol | -13.7 kcal/mol | 1500 nM | 150 nM | 80 nM | 830 nM | 167 to 168 °C | 130 nM | Intrinsic Gibbs energy change (ΔGint), CAI (CAI): -14.4 kcal/mol; Intrinsic Gibbs energy change (ΔGint), CAIX (CAIX): -15.5 kcal/mol; Intrinsic Gibbs energy change (ΔGint), CAXII (CAXII): -13.9 kcal/mol; pKa [3, 4]: 10.3
CCOC(=O)c1sc(N(CCC(=O)NN)c2ccc(S(N)(=O)=O)cc2)nc1C [Compound 33] | ≥ 200000 nM | -13.1 kcal/mol | -13.4 kcal/mol | 1100 nM | -12.4 kcal/mol | 25000 nM | -14.7 kcal/mol | 100 nM | -13.8 kcal/mol | 500 nM | ≥ 200000 nM | 830 nM | -14.3 kcal/mol | -13 kcal/mol | 2800 nM | 3100 nM | 630 nM | 26000 nM | 206 to 207 °C | 910 nM | Intrinsic Gibbs energy change (ΔGint), CAI (CAI): -12.2 kcal/mol; Intrinsic Gibbs energy change (ΔGint), CAIX (CAIX): -14 kcal/mol; Intrinsic Gibbs energy change (ΔGint), CAXII (CAXII): -11.5 kcal/mol; pKa ([3]; value marked *: average of measured compounds, used for calculation, read-out: Sulfonamide pKa (not determined, average of all measured compounds)): 10.1
Cc1cc(C)n(C(=O)CC(CNc2ccc(S(N)(=O)=O)cc2Cl)C(=O)n2nc(C)cc2C)n1 (stereo not drawn) [Compound 20, 3-Chloro-4-((4-(3,5-dimethyl-1H-pyrazol-1-yl)-2-(3,5-dimethyl-1H-pyrazole-1-carbonyl)-4-oxobutyl)amino)benzenesulfonamide] | ≥ 200000 nM | – | – | 10000 nM | – | 20000 nM | – | 3300 nM | – | 500 nM | 22000 nM | 2900 nM | – | – | 2000 nM | 5000 nM | 100 nM | 13000 nM | 201 to 202 °C | 330 nM | –
Cc1ccc(C)n1NC(=O)CC(CNc1ccc(S(N)(=O)=O)cc1Cl)C(=O)Nn1c(C)ccc1C (stereo not drawn) [Compound 19b, 2-(((2-Chloro-4-sulfamoylphenyl)amino)methyl)-N^1,N^4-bis(2,5-dimethyl-1H-pyrrol-1-yl)succinamide] | ≥ 200000 nM | – | – | 200 nM | – | 5000 nM | – | 1400 nM | – | 50 nM | 20000 nM | 130 nM | – | – | 1800 nM | 290 nM | 56 nM | 1300 nM | 232 to 233 °C | 25 nM | –
Cc1csc(N(CCC(=O)O)c2ccc(S(N)(=O)=O)cc2)n1 [Compound 27, 3-((4-Methylthiazol-2-yl)(4-sulfamoylphenyl)amino)propanoic acid] | 63000 nM | -13.5 kcal/mol | -14.7 kcal/mol | 250 nM | -13 kcal/mol | 18000 nM | -14.1 kcal/mol | 560 nM | -14.7 kcal/mol | 220 nM | ≥ 200000 nM | 870 nM | -15.8 kcal/mol | -13.9 kcal/mol | 1400 nM | 67 nM | 48 nM | 180 nM | 162 to 163 °C | 170 nM | Intrinsic Gibbs energy change (ΔGint), CAIII (CAIII): -11.6 kcal/mol; Intrinsic Gibbs energy change (ΔGint), CAI (CAI): -15 kcal/mol; Intrinsic Gibbs energy change (ΔGint), CAIX (CAIX): -16 kcal/mol; Intrinsic Gibbs energy change (ΔGint), CAXII (CAXII): -15 kcal/mol; pKa [3, 4]: 10.4
